Key:
[1] = system: ErbB2+ breast cancer cell lines (BT474; SKBR3); assay: Cell growth and viability assay (WST-1); format: cell-based, human
Description: (§1) UV irradiation was carried out in 6 or 96 well plate format in a UV Stratalinker 1800 (Statagene, LA Jolla, Calif.) at the UV doses indicated in the figures. Cell growth and viability assays were performed in a 96-well plate format in a final volume of 100 μl/well using the cell proliferation reagent WST-1 from Roche Diagnostics (Mannheim, Germany), as previously described. Details of the apoptosis assay have been previously described. Briefly, cells were treated in 12-well plates with 8MOP, UV irradiation, or lapatinib at the treatment conditions indicated in the Figure legends. Cells were harvested with trypsin-EDTA, and 5000 cells in final volume of 50 μl were sampled in 96-well microplates. Cells were directly stained with annexin V-PE and nexin 7-AAD in 1× Nexin Buffer in a 200 μl final reaction volume. After incubating at room temperature for 20 min, the reaction samples were analyzed in the Guava PCA-96-system (Guava Technology Inc. Hayward, Calif.).

ErbB2 = assay: Western blot analysis of ErbB2 signaling in ErbB2+ breast cancer cells; format: cell-based, human
Description: (§2) Whole cell extracts were prepared by scraping cells off petri dishes, washing cell pellets 2× in phosphate buffered saline (PBS), and then re-suspending pellets in two-packed-cell volumes of RIPA buffer (150 mM NaCl, 50 mM Tris-HCl, pH 7.5, 0.25% (w/v) deoxycholate, 1% NP-40, 5 mM sodium orthovanadate, 2 mM sodium fluoride, and a protease inhibitor cocktail). Protein concentrations were determined using a modification of the Bradford method (Bio-Rad Labs, Hercules, Calif.). For Western blot analysis, equal amounts of proteins (25 to 50 μg) were resolved by either 7.5% or 4-15% gradient SDS polyacrylamide gel electrophoresis under reducing conditions as previously described. Proteins were transferred to nitrocellulose membranes and probed with primary antibodies specific for proteins of interest. After extensive washing, membranes were incubated with a secondary IRDye 800 conjugated anti-rabbit or mouse IgG, or Alexa Fluor 680 anti-rabbit IgG and proteins were visualized using the LI-COR Odyssey Infrared Imaging System (LI-COR, Inc., Lincoln, Nebr.).

MCF7 cells = assay: Cell growth and viability assay (WST-1); format: cell-based, human; conditions: PUVA, 2.5 and 5 μM 8MOP; compared with ErbB2+ lines
Description: as §1

[2] = system: human foreskin fibroblast cell line (HFF); assay: Cell growth and viability assay (WST-1); format: cell-based; conditions: PUVA, 2.5 and 5 μM 8MOP; compared with ErbB2+ lines
Description: as §1

[3] = system: ErbB2+ breast cancer cells (BT474; SKBR3); assay: Apoptosis assay (annexin V-PE / 7-AAD); format: cell-based, human
Description: as §1

rBT474 and rSKBR3 cells = assay: Cell growth and viability assay in lapatinib resistant cells; format: cell-based, human; conditions: PUVA; cells maintained in 1 μM lapatinib; dose-dependent
Source text: ErbB2+(BT474; SKBR3) and ErbB2 negative (MCF-7; T47D) human breast cancer cell lines, and the human foreskin fibroblast (HFF) cell line were obtained from the American Type Culture Collection (Manassas, Va.). Lapatinib resistant breast cancer cells (rBT474; rSKBR3) were generated and maintained in culture as previously described. Cells were maintained in RPMI-1640 supplemented with 10% fetal bovine serum and L-glutamine from GIBCO (Grand Island, N.Y.) growing in a humidified atmosphere of 5% CO2 at 37° C. IRDye 800 conjugated affinity purified anti-rabbit IgG and anti-mouse IgG were from Rockland (Gilbertsville, Pa.). Alexa Fluor 680 goat anti-rabbit IgG were purchased from Molecular Probes (Eugene, Oreg.). Anti-PARP (Poly (ADP-ribose) Polymerase) monoclonal antibody was from BD PharMingen (San Jose, Calif.). 8-Methoxypsoralen (8MOP) and the 4G10 anti-phosphotyrosine (p-tyr) antibody were purchased from Sigma-Aldrich (St. Louis, Mo.). Monoclonal antibodies to c-ErbB2 and EGFR were purchased from Neo Markers (Union City, Calif.). […]
UV irradiation was carried out in 6 or 96 well plate format in a UV Stratalinker 1800 (Statagene, LA Jolla, Calif.) at the UV doses indicated in the figures. […] After incubating at room temperature for 20 min, the reaction samples were analyzed in the Guava PCA-96-system (Guava Technology Inc. Hayward, Calif.).

[4] = system: EGFR, ErbB3, Akt, PARP in rBT474 and rSKBR3; assay: Western blot analysis in lapatinib resistant cells; format: cell-based, human
Description: as §2

T47D cells = assay: Growth and apoptosis in T47D and p85ErbB2 transfected T47D cells; format: cell-based, human
Description: as §1
(§3) The c-terminal fragment (p85^ErbB2) was generated based on ErbB2 open reading frames and sub-cloned into the pcDNA 3.1 (+) as previously described. HER2 negative T47D breast cancer cells were transfected with the p85 expressing vector using the Lipofectamine™ 2000 Reagent from Invitrogen (Carlsbad, Calif.) as previously described. […]

p85^ErbB2 = assay: Western blot of phospho-p85ErbB2 in stably transfected T47D cells; format: cell-based, human; conditions: p85 expressing T47D cells; 5 μM lapatinib or 5 μM 8MOP 4 hr, then UV irradiation
Description: as §2, §3

Cc1c2occc2cc2c1oc(=O)c1cnccc12 [7-methylpyridopsoralen]
growth and viability of ErbB2+ breast cancer cells ([1]; upon photo-activation (UVA irradiation), 72 hr, BT474 and SKBR3): significantly inhibited
phosphorylated and total ErbB2 protein expression (ErbB2; upon photo-activation (UVA irradiation)): inhibition

COc1c2occc2cc2ccc(=O)oc12 [8MOP, 8-Methoxypsoralen]
cell viability ([1]; 8MOP alone, no UV irradiation): relatively little effect
growth and viability of ErbB2+ breast cancer cell lines ([1]; PUVA: 8MOP 4 hr pre-treatment, UVA irradiation (2J), 72 hr, dose-dependent): significantly inhibited
growth and viability of MCF7 cells (MCF7 cells): relatively less effect
growth and viability of HFF cells [2]: relatively less effect
apoptosis ([3]; PUVA: 8MOP + UVA irradiation (2J), 72 hr): induction of apoptosis
ErbB2 signaling (ErbB2; 8MOP alone, no UV irradiation): relatively little effect
phosphorylated forms of Akt and Erk1/2 (ErbB2; PUVA (8MOP + UVA)): inhibited
steady-state protein levels of phosphorylated ErbB2 (ErbB2; PUVA (8MOP + UVA), dose-dependent): reduced
total ErbB2 protein levels (ErbB2; higher doses of PUVA therapy): reduced
tumor cell growth and viability (rBT474 and rSKBR3 cells): significantly reduced
PARP cleavage product ([4]; PUVA-treated lapatinib resistant tumor cells): increased
expression of phosphorylated EGFR (Y992), ErbB3 (Y1197) and Akt (T308) ([4]; PUVA-treated rBT474 and rSKBR3): reduction
total EGFR and ErbB3 protein expression ([4]; PUVA-treated rBT474 and rSKBR3): markedly reduced
antitumor effect (growth) (T47D cells; T47D cells transfected with empty vector alone): antitumor effect
tumor cell apoptosis (T47D cells; p85 expressing T47D cells): triggering tumor cell apoptosis
p85ErbB2 phosphorylation (p85^ErbB2): markedly inhibited

CS(=O)(=O)CCNCc1ccc(-c2ccc3ncnc(Nc4ccc(OCc5cccc(F)c5)c(Cl)c4)c3c2)o1 [lapatinib]
p85ErbB2 phosphorylation (p85^ErbB2): not inhibited

CCOc1cc2ncc(C#N)c(Nc3ccc(OCc4ccccn4)c(Cl)c3)c2cc1NC(=O)/C=C/CN(C)C [neratinib]
cell viability ([1]; combination of 8-MOP, UVA irradiation and neratinib, each at sub-lethal doses): significantly enhanced inhibition
apoptosis in ErbB2+ breast cancer cells ([3]; neratinib at sub-lethal doses combined with PUVA): significantly increased
total ErbB2 and ErbB3 protein expression (ErbB2; neratinib in combination with UVA irradiation alone, more pronounced in SKBR3): further loss
p-Akt (S473) expression (ErbB2; neratinib treatment alone): loss
total ErbB2 and ErbB3 protein levels (ErbB2; neratinib treatment alone): marked reduction

— patent publication US9439897B2, “Use of psoralen derivatives and combination therapy for treatment of cell proliferation disorders” (IMMUNOLIGHT, LLC, priority 2014, dated 2016)
